From publication PMC7411605, “Xanthine Oxidase Inhibition and Anti-LDL Oxidation by Prenylated Isoflavones from Flemingia philippinensis Root” (Molecules, 2020)
Values joined by “and” are separate entries in the source; they are usually repeats but may differ in a detail not shown here. Equal entries are not always repeated. Where two headings read alike, the source gives them in different places.

Columns and labels:
[1] = molecular target: T1, Bovine milk xanthine oxidase (XO, EC 1.17.3.2) (Bos taurus, UniProt P80457); assay: Xanthine oxidase inhibition kinetics (Lineweaver–Burk and Dixon plots); format: biochemical; settings: for Inhibition Mode: Lineweaver–Burk plots, xanthine 15, 30, 60 μM; for KIS: binding of inhibitor to enzyme-substrate complex, secondary plot of intercept
T1 construct: Xanthine oxidase from bovine milk (EC 1.17.3.2); purchased Sigma Aldrich Co., (St. Louis, MO, USA); host or cells: bovine milk
T1 sequence (P80457 whole entry): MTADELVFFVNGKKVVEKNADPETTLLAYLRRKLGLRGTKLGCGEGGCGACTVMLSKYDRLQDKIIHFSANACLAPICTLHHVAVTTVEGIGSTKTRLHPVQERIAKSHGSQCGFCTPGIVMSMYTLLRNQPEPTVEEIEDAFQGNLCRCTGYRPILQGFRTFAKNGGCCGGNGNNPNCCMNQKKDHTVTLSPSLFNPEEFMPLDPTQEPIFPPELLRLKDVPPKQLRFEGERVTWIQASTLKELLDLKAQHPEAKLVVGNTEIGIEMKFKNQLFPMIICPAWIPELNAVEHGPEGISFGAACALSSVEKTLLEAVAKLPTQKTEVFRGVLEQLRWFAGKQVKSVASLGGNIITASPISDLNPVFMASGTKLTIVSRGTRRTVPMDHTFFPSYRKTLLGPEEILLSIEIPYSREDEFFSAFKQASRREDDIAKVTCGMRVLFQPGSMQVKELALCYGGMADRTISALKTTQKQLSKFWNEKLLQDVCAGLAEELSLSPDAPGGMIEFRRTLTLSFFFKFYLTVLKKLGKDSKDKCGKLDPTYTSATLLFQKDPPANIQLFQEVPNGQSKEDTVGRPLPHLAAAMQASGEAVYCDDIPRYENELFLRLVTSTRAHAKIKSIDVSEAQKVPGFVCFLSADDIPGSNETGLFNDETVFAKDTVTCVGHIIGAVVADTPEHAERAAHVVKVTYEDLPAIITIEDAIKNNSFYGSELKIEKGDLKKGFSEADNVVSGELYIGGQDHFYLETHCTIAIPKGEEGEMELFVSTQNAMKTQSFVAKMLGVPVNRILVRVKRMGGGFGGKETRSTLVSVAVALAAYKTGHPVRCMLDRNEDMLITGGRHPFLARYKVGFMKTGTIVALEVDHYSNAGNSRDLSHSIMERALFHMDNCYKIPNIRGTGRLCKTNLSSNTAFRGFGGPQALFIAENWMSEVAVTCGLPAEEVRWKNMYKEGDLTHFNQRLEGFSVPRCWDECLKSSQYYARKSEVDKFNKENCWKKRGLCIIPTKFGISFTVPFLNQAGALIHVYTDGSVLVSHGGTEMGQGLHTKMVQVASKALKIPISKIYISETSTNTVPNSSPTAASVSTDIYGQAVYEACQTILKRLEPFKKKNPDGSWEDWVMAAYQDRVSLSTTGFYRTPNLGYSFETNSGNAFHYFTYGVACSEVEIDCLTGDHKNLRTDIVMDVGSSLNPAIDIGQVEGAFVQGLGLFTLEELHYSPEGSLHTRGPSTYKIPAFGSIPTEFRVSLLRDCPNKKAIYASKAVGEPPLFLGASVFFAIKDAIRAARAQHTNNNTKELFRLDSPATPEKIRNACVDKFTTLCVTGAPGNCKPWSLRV
Experimental: The inhibition mode and inhibitory constants were determined by Lineweaver–Burk and Dixon plots. For obtaining double reciprocal plots, was measured the reaction absorbance of the enzyme, inhibited by different concentrations of inhibitors, with three concentrations of xanthine (15, 30, and 60 μM) at 295 nm and 37 °C. The corresponding kinetic parameters, namely the Michaelis-Menten constant (Km), maximal velocity (Vmax), inhibitory constant (Ki), and dissociation constant of a binding site for the inhibitor to either free enzyme or the enzyme-substrate complex (KI and KIS) were determined by Equations (2)–(4).

human LDL [2] = assay: TBARS assay of Cu2+ induced LDL oxidation; format: biochemical; settings: for IC50: LDL 500 μg/mL, 10 μM Cu2+, 37 °C, 4 h; for Inhibition Rate: at 10 μM of compound, oxidized LDL induced by Cu2+
Experimental: Thiobarbituric acid reactive substances (TBARS) assay was carried out according to the previous method with minor modifications. The absorbance of a product of a reaction between thiobarbituric acid (TBA) and malondialdehyde (MDA) was measured at 540 nm. First, 220 μL of 500 μg/mL LDL in a buffer (10 mM PBS, pH 7.4), 10 μL of […], and 10 μL of different concentrations from 0 to 3 mM of isoflavones or probucol as a positive control were mixed in 1.5 mL Eppendorf tube and incubated at 37 °C for 4 h. After incubation, 100 μL of trichloroacetic acid (TCA) and 100 μL of 0.67% thiobarbituric acid (TBA)/0.05 N NaOH were added to the reaction mixture and heated in the water bath at 100 °C for 15 min. After heating, the mixture was cooled on the ice and centrifuged for 15 min at 3000 rpm. The absorbance of supernatant was measured and the IC50 values were calculated from the inhibition rate derived from Equation (1).

[3] = molecular target: T1, Bovine milk xanthine oxidase (XO, EC 1.17.3.2); assay: Xanthine oxidase activity (uric acid formation at 295 nm); format: biochemical; settings: sample concentration which leads to 50% xanthine oxidase activity loss; xanthine substrate, pH 7.5, 37 °C; read-out: IC50, xanthine oxidase inhibition (converted)
Experimental: The half-maximal inhibitory concentrations (IC50) were calculated according to the enzyme inhibition rate (%) derived from the change of uric acid formation in comparison with the concentration of inhibitors. The inhibition rate derived from the non-linear regression fitting to Equation (1). Inhibition rate (%) = 100 × [(rate of control reaction − rate of inhibitor reaction)/rate of control reaction](1)

human LDL [4] = assay: Conjugated diene formation on Cu2+ induced LDL oxidation; format: biochemical; settings: at 10 μM of compound; 234 nm, followed for 180 min
Experimental: The formation of conjugated dienes from oxLDL was assessed by the method. The conjugated diene formation occurred in the clear bottom 96-well plate. The mixture of each well containing 230 μL of 550 μg/mL LDL in the buffer (10 mM PBS, pH 7.4) and 10 μL of 250 μM CuSO4 (final concentration: 10 μM) in the presence or absence of isoflavones or probucol as a positive control (final concentration: 10 μM) were incubated at 37 °C for 4 h. Then, the reaction was screened at 234 nm for 180 min every 5 min, continuously, incubating in the SpectraMax M3 multi-mode microplate reader. In the observed absorbance spectra, the lag time of tested samples was obtained as the endpoint indicated in the lag phase.

xanthine oxidase = molecular target: T2, xanthine oxidase (Bos taurus, UniProt P80457); assay: Fluorescence quenching of xanthine oxidase (binding affinity); parameters: species or system bovine; settings: for Stern–Volmer constant KSV / Kd: excitation 290 nm, emission 300-400 nm; for Kd: read-out: binding constant KA (converted); for number of binding sites n: fluorescence quenching
T2 construct: Xanthine oxidase from bovine milk (EC 1.17.3.2); purchased Sigma Aldrich Co., (St. Louis, MO, USA); host or cells: bovine milk
T2 sequence (P80457 whole entry): as above
Experimental: The binding affinity between xanthine oxidase and isolated isoflavones were measured by fluorescence quenching method. For the fluorescence quenching experiments, the Trp intensities of xanthine oxidase were monitored wavelength of emission from 300 to 400 nm and excitation of 290 nm. The reaction mixture containing 180 μL of 200 mM sodium pyrophosphate/HCl (pH 7.5), 10 μL of isolated isoflavones diluted in DMSO (3.125, 6.25, 12.5, 25.0, and 50.0 μM), and 10 μL of 1 unit/mL xanthine oxidase was placed in black/flat bottom 96-well microplates. […] The quenching parameters such as the Stern–Volmer constant (KSV), binding constant (KA), and the number of binding sites (n) were determined by the Equations (5) and (6). F0 − F = 1 + KSV [Q](5) Log [(F0 − F)/F] = log KA + n log [Q]f(6)

[5] = molecular target: T1, Bovine milk xanthine oxidase (XO, EC 1.17.3.2); assay: Xanthine oxidase activity (uric acid formation at 295 nm); format: biochemical; settings: initial velocity versus enzyme amount, 0~12.5 μM of compound
human LDL [6] = assay: Conjugated diene formation on Cu2+ induced LDL oxidation; format: biochemical
human LDL [7] = assay: Relative electrophoretic mobility (REM) of Cu2+ oxidized LDL; format: biochemical; settings: 10 μM compound, 10 μM CuSO4, 16 h
Experimental: The relative electrophoretic mobility (REM) of native LDL and oxidized LDL induced by Cu^2+ was performed according to the procedures of references. Before the electrophoresis, the samples containing 10 μM of CuSO4 and 10 μM of nine isoflavones or probucol were treated into LDL (500 μg/mL), then incubated for 16 h at 37 °C in dark condition. The native LDL and pretreated LDL samples loaded onto 0.5% agarose gel in TAE buffer (40 mM Tris-acetate with 1 mM EDTA, pH 8.0) and electrophoresed for 50 min at 100 V. After the electrophoresis, the gel was fixed in 40% ethanol with 10% acetic acid for 30 min, stained with 0.15% coomassie brilliant blue R250, and LDL bands visualized by using the destaining solution (methanol:acetic acid:water, 3:2:15, v/v).

[8] = Dixon plots, read-out: Ki (inhibition constant)
[9] = binding of inhibitor to free enzyme, secondary plot of slope, read-out: KI

Row | Compound | Ki [1, 8] [µM] | Inhibition Mode [1] | IC50 (human LDL [2]) | IC50 [3] [µM] | Stern–Volmer constant KSV (xanthine oxidase) [L/mol] | Kd (xanthine oxidase) [µM] | number of binding sites n (xanthine oxidase) | KIS [1] [µM] | Ki [1, 9] [µM] | Reversibility of XO inhibition [5] | Inhibition Rate (human LDL [2]) [%] | Lag Time of conjugated diene formation (human LDL [4]) [min] | Lag Time of conjugated diene formation (human LDL [6]; 0.3 μM of compound) [min] | Lag Time of conjugated diene formation (human LDL [6]; 0.6 μM of compound) [min] | Lag Time of conjugated diene formation (human LDL [6]; 1.25 μM of compound) [min] | fold more active than genistein in TBARS assay (human LDL [2]; ratio of TBARS IC50 values versus genistein (IC50 = 30.4 μM)) [fold] | Effect on mobility of oxidized LDL (REM) (human LDL [7])
1 | O=c1c(-c2ccc(O)cc2)coc2cc(O)cc(O)c12 [Compound 1, genistein] | 11.5 | competitive inhibitor | 30.4 ± 1.5 µM | 25 ± 2.3 | 18450 | 1.99 | 0.7268 |  |  |  | 20.3 | 80 |  |  |  |  | 
2 | CC(C)=CCc1c2c(c(O)c3c(=O)c(-c4ccc(O)c(O)c4)coc13)C=CC(C)(C)O2 [Compound 2, auriculasin] | 11.1 | Mixed type I | 2.4 µM | 12.4 | 77550 | 1.33 | 1.0359 | 28.1 | 10.8 |  | 95.9 | > 180 |  |  |  |  | 
3 | CC(C)=CCc1c(O)c(CC=C(C)C)c2occ(-c3ccc(O)c(O)c3)c(=O)c2c1O [Compound 3, 6,8-diprenylorobol] | 5.5 | Mixed type I | 1.9 µM | 7.8 | 125300 | 1.11 | 1.4392 | 15.5 | 5.7 | reversible | 98.6 | > 180 |  |  |  |  | 
4 | C=CC(C)(C)C1=Cc2c(c(CC=C(C)C)c3occ(-c4ccc(O)c(O)c4)c(=O)c3c2O)OC1(C)C [Compound 5, flemiphilippinin A] | 12.8 | Mixed type I | 2.7 µM and 2.8 µM | 14.8 | 55310 | 1.38 | 1.0018 | 26.3 | 12.5 |  | 94.1 | > 180 |  |  |  |  | 
5 | CC(C)=CCc1c(-c2coc3cc(O)cc(O)c3c2=O)cc2c(c1O)OC(C)(C)C=C2 [Compound 6, 5,7,3′-trihydroxy-2′-(3-methylbut-2-enyl)-4′,5′-(3,3-dimethylpyrano)isoflavone] | 19.3 | Mixed type I | 10.9 µM | 20.4 | 36450 | 1.6 | 0.8154 | 40.0 | 18.8 |  | 48.8 |  |  |  |  |  | clearly reduced
6 | CC(C)=CCc1c2c(c3occ(-c4ccc(O)cc4)c(=O)c3c1O)C=CC(C)(C)O2 [Compound 8, osajin] | 33.9 | Mixed type I | 24.6 µM | 34.7 | 9870 | 2.14 | 0.6889 | 52.4 | 35.1 |  | 25.4 | 108 |  |  |  |  | 

More lines, main results first:

Row | Ki [1, 8] [µM] | Inhibition Mode [1] | IC50 (human LDL [2]) | IC50 [3] [µM] | Stern–Volmer constant KSV (xanthine oxidase) [L/mol] | Kd (xanthine oxidase) [µM] | number of binding sites n (xanthine oxidase) | KIS [1] [µM] | Ki [1, 9] [µM] | Reversibility of XO inhibition [5] | Compound | Inhibition Rate (human LDL [2]) [%] | Lag Time of conjugated diene formation (human LDL [4]) [min] | Lag Time of conjugated diene formation (human LDL [6]; 0.3 μM of compound) [min] | Lag Time of conjugated diene formation (human LDL [6]; 0.6 μM of compound) [min] | Lag Time of conjugated diene formation (human LDL [6]; 1.25 μM of compound) [min] | fold more active than genistein in TBARS assay (human LDL [2]; ratio of TBARS IC50 values versus genistein (IC50 = 30.4 μM)) [fold] | Effect on mobility of oxidized LDL (REM) (human LDL [7])
7 | 11.5 | Mixed type I | 0.7 µM | 10.9 | 94970 | 1.12 | 1.4031 | 23.0 | 10.7 |  | CC(C)=CCc1cc(-c2coc3cc(O)cc(O)c3c2=O)c(CC=C(C)C)c(O)c1O [Compound 4, 5,7,3′,4′-tetrahydroxy-2′,5′-di(3-methylbut-2-enyl)isoflavone] | 100 | > 180 | 120 | 160 | 180 | 40 | 
8 | 11.3 | Mixed type I | 15.2 µM | 16.9 | 47970 | 1.5 | 0.8836 | 12.9 | 7.2 |  | CC(C)=CCc1c(O)c(CC=C(C)C)c2occ(-c3ccc(O)cc3)c(=O)c2c1O [Compound 7, 8-γ,γ-dimethylallylwighteone] | 38.7 | 124 |  |  |  |  | clearly reduced
9 | 35.1 | Mixed type I | 14.6 µM | 36.4 | 9300 | 4.11 | 0.6736 | 49.0 | 35.2 |  | COc1cc(-c2coc3c(CC=C(C)C)c(O)c(CC=C(C)C)c(O)c3c2=O)ccc1O [Compound 9, flemingsin] | 40.3 | 128 |  |  |  |  | clearly reduced
10 |  |  | 35.1 µM |  |  |  |  |  |  |  | CC(C)(Sc1cc(C(C)(C)C)c(O)c(C(C)(C)C)c1)Sc1cc(C(C)(C)C)c(O)c(C(C)(C)C)c1 [Probucol, probucol, reference compound] | 16.4 | 83 |  |  |  |  | 
